Test results: PubChem BioAssay (NCI)
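A five-concentration, 48-hour dose response in 96-well plates underlies each endpoint, interpolated linearly between surrounding concentrations. TGI is the concentration that stops growth completely.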

How the values were obtained:
Assay in all cases: NCI tumour cell line growth inhibition, 48 h
[1] = system: 786-0 renal
[2] = system: A498 renal
[3] = system: A549 NSCLC
[4] = system: ACHN renal
[5] = system: CCRF-CEM leukemia
[6] = system: COLO 205 colon
[7] = system: DLD-1 colon
[8] = system: DMS 114 small cell lung
[9] = system: DMS 273 small cell lung
[10] = system: EKVX NSCLC
[11] = system: HCC-2998 colon
[12] = system: HCT-116 colon
[13] = system: HCT-15 colon
[14] = system: HL-60(TB) leukemia
[15] = system: HOP-18 NSCLC
[16] = system: HOP-62 NSCLC
[17] = system: HOP-92 NSCLC
[18] = system: HT29 colon
[19] = system: IGROV1 ovarian
[20] = system: K-562 leukemia
[21] = system: KM12 colon
[22] = system: KM20L2 colon
[23] = system: LOX IMVI melanoma
[24] = system: M14 melanoma
[25] = system: M19-MEL melanoma
[26] = system: MALME-3M melanoma
[27] = system: MOLT-4 leukemia
[28] = system: NCI-H226 lung
[29] = system: NCI-H23 lung
[30] = system: NCI-H522 lung
[31] = system: OVCAR-3 ovarian
[32] = system: OVCAR-5 ovarian
[33] = system: OVCAR-8 ovarian
[34] = system: RPMI-8226 leukemia
[35] = system: RXF 393 renal
[36] = system: SF-268 CNS
[37] = system: SF-295 CNS
[38] = system: SF-539 CNS
[39] = system: SK-MEL-2 melanoma
[40] = system: SK-MEL-28 melanoma
[41] = system: SK-MEL-5 melanoma
[42] = system: SK-OV-3 ovarian
[43] = system: SN12C renal
[44] = system: SNB-19 CNS
[45] = system: SNB-75 CNS
[46] = system: SNB-78 CNS
[47] = system: SR leukemia
[48] = system: SW-620 colon
[49] = system: TK-10 renal
[50] = system: U251 CNS
[51] = system: UACC-257 melanoma
[52] = system: UACC-62 melanoma
[53] = system: UO-31 renal
[54] = system: XF 498 CNS

Measured: TGI

CCOC(=O)C1Cc2ccc3c4c(ccc(c24)C1)CC(C(=O)OCC)C3
> 100 µM: all assays above
